{
  "source": "patent US20220226343A1",
  "about": "“3-AMINO-4-[4-[4 (DIMETHYLCARBAMOYL) PHENYL]-1,4-DIAZEPAN-1-YL]THIENO[2,3-B]PYRIDINE-2-CARBOXAMIDE FOR USE IN CANCER THERAPY AND FORMULATIONS COMPRISING THE SAME” (University of South Carolina, priority 2019, published 2022)",
  "key": {"[1]": {"experiment": "Mouse PK, intravenous 0.5 mg/kg", "type": "in vivo", "details": "i.v. 0.5 mg/kg, male FVB mice, mixture"}, "CDC2L5": {"biological_target": "T1, CDC2L5 (Homo sapiens, UniProt Q14004)", "T1 construct": "purchased DiscoverX (KINOMEscan scanMAX service)", "experiment": "KINOMEscan scanMAX", "type": "binding", "details": "CDC2L5, 2000 nM", "from_the_text": "(§1) Nat. Biotechnol. 23, 329-336 (2005).\n(§2) Percent Control (% Ctrl).\n(§3) % Ctrl=100×(TS−CPOS)/(CNEG−CPOS) (eqn 1)"}, "FLT3(ITD)": {"tested_on": "FLT3(ITD)", "experiment": "KINOMEscan scanMAX", "type": "binding", "details": "2000 nM", "from_the_text": "as §1, §2, §3"}, "FLT3(ITD, D835V)": {"tested_on": "FLT3(ITD, D835V)", "experiment": "KINOMEscan scanMAX", "type": "binding", "details": "2000 nM", "from_the_text": "as §1, §2, §3"}, "FLT3(ITD, F691L)": {"tested_on": "FLT3(ITD, F691L)", "experiment": "KINOMEscan scanMAX", "type": "binding", "details": "2000 nM", "from_the_text": "as §1, §2, §3"}, "PFCDPK1(P. falciparum)": {"biological_target": "T2, PFCDPK1(P. falciparum) (Plasmodium falciparum, UniProt P62344)", "T2 construct": "DNA label (qPCR read-out); purchased DiscoveRx (KINOMEscan scanMAX)", "T2 sequence (P62344 whole entry)": "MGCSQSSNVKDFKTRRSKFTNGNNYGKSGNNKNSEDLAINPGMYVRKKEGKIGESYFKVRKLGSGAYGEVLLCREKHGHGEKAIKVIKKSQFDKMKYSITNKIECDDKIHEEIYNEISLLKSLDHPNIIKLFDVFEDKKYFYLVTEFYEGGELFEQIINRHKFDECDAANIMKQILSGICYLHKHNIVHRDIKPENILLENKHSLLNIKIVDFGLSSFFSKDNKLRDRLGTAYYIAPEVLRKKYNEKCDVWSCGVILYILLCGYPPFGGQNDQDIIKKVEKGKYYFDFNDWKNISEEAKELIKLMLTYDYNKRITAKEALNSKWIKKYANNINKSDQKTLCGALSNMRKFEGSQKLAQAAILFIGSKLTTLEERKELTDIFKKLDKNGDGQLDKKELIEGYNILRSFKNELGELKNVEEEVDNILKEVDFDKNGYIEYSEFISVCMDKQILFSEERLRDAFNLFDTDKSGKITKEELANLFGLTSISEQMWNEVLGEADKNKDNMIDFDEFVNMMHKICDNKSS", "experiment": "KINOMEscan scanMAX", "type": "binding", "details": "2000 nM", "from_the_text": "as §1, §2, §3"}, "PFPK5(P. falciparum)": {"biological_target": "T3, PFPK5(P. falciparum) (Plasmodium falciparum, UniProt P61075)", "T3 construct": "purchased KINOMEscan (DiscoveRx) scanMAX panel", "T3 sequence (P61075 whole entry)": "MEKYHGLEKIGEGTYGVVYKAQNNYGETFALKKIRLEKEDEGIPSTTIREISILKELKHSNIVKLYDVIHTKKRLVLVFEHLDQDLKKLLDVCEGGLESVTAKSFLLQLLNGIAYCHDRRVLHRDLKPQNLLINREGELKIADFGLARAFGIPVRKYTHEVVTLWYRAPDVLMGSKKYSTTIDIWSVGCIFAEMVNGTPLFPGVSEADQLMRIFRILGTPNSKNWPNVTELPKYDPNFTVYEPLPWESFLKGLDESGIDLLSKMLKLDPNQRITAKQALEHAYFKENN", "experiment": "KINOMEscan scanMAX", "type": "binding", "details": "2000 nM", "from_the_text": "as §1, §2, §3"}, "PKNB(M. tuberculosis)": {"biological_target": "T4, PKNB(M. tuberculosis) (Mycobacterium tuberculosis, UniProt P9WI81)", "T4 construct": "purchased DiscoveRx (KINOMEscan scanMAX panel)", "T4 sequence (P9WI81 whole entry)": "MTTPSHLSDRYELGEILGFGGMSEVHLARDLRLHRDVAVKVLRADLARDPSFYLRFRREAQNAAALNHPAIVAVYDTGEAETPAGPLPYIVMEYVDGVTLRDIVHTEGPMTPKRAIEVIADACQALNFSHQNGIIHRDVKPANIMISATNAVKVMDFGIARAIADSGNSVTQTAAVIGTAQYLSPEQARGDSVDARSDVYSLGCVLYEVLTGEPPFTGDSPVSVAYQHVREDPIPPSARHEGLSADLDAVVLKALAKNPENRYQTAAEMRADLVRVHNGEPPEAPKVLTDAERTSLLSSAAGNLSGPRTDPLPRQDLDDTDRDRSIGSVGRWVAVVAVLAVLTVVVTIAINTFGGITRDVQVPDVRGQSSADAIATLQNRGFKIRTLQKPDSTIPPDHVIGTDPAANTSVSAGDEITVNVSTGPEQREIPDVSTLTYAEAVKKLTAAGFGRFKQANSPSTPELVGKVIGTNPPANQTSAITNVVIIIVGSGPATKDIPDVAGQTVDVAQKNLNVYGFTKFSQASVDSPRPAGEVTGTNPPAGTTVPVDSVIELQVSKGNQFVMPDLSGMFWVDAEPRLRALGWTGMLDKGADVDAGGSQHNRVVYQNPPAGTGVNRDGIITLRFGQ", "experiment": "KINOMEscan scanMAX", "type": "binding", "details": "2000 nM", "from_the_text": "as §1, §2, §3"}, "PRP4": {"biological_target": "T5, PRP4 (Homo sapiens, UniProt Q13523)", "T5 construct": "DNA label (qPCR read-out); purchased DiscoverX (KINOMEscan)", "T5 sequence (Q13523 whole entry)": "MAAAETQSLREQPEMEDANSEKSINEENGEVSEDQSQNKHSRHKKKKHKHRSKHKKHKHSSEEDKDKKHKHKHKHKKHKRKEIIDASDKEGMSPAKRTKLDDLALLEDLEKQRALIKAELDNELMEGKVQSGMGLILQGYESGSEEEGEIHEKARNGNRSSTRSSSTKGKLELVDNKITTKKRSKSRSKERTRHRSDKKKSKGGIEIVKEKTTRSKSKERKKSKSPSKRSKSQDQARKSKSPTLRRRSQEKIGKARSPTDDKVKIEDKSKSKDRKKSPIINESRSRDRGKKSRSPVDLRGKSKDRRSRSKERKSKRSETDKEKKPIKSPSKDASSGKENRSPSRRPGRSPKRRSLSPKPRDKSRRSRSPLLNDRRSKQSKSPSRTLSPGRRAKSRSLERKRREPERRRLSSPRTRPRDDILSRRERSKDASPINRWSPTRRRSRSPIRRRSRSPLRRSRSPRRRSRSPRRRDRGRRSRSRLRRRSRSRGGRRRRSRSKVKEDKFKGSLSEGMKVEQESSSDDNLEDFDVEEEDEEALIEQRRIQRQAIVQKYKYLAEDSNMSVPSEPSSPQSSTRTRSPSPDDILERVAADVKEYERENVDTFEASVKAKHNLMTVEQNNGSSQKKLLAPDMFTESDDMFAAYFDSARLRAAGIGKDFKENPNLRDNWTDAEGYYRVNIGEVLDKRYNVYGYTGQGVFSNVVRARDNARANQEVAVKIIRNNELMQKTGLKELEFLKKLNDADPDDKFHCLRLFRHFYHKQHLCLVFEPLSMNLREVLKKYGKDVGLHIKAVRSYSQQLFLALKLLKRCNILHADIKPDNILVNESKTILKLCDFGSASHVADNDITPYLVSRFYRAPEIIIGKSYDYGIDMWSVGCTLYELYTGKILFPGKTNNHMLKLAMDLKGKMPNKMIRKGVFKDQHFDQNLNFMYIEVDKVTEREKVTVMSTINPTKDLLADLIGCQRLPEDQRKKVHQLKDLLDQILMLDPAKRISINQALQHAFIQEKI", "experiment": "KINOMEscan scanMAX", "type": "binding", "details": "PRP4, 2000 nM", "from_the_text": "as §1, §2, §3"}, "[2]": {"tested_on": "PSA expression in CRPC cell line C4-2", "experiment": "PSA expression in cell culture supernatant of C4-2 cells", "type": "cell-based", "details": "96 h; C4-2 culture supernatant, 4-day treatment, FBS-supplemented regular media", "from_the_text": "CDK8/19 inhibition decreases the expression of certain androgen-receptor (AR) inducible genes including PSA, the most common marker of prostate cancer, and the growth of castration-refractory prostate cancers (CRPC)."}, "MYC-CAP-CR cells [3]": {"tested_on": "MYC-CAP-CR cells", "experiment": "Short-term cell proliferation assay, MYC-CAP-CR", "type": "cell-based, murine", "details": "androgen-containing media", "from_the_text": "(§4) MYC-CaP-CR cells (Ellis L. et al., 2012. Prostate 72(6):587-591) were selected for castration resistance from genetically engineered MYC-CaP cells that express MYC from an AR-responsive promoter (Watson P A, et al., 2005. Cancer Res 65(24):11565-11571). Castration resistance in these cells is associated with the overexpression of full-length AR rather than an AR variant, such as AR-V7 in 22rv1 (Olson B M, et al., 2017. Cancer immunology research 5(12):1074-1085)."}, "MYC-CAP-CR cells [4]": {"tested_on": "MYC-CAP-CR cells", "experiment": "Long-term clonogenic assay, MYC-CaP-CR", "type": "cell-based, murine", "details": "1 μM Senexin B, 1 μM 15u, 5 μM enzalutamide", "from_the_text": "as §4"}, "MYC-CaP-CR tumors": {"tested_on": "MYC-CaP-CR tumors", "experiment": "MYC-CaP-CR tumors subcutaneous in intact FVB male mice", "type": "in vivo, mouse", "from_the_text": "as §4"}, "[5]": {"tested_on": "4T1 murine TNBC lung metastasis", "experiment": "4T1 breast cancer metastasis survival after primary tumor removal", "type": "in vivo, mouse", "details": "15u 25 mg/kg oral b.i.d. after removal of the primary 4T1 tumor", "experimental": "4T1 is a murine triple-negative breast cancer (TNBC) cell line, which is highly metastatic to the lungs. […] Parental and CDK8-knockdown 4T1 cells (n=10) were injected orthotopically in the mammary fat pad and the primary tumors were removed 17 days later. Following surgery, all the mice eventually died with lung metastases. […] However, the loss of CDK8 was associated with a strong increase in the survival of mice (FIG. 10C). […]"}, "[6]": {"tested_on": "luciferase-expressing MV4-11 cells", "experiment": "MV4-11 leukemia in female NSG mice (BLI)", "type": "in vivo, mouse", "details": "for inhibition of leukemia growth: 23 days, BLI"}, "[7]": {"experiment": "Oral PK by formulation, male Sprague Dawley rats 30 mg/kg", "type": "in vivo, rat", "details": "oral 30 mg/kg", "experimental": "We have also compared the PK of Suspension Vehicle 1 and Liquid formulation 2 in male Sprague Dawley rats, after oral administration at 30 mg/kg."}, "[8]": {"experiment": "MTD, oral gavage b.i.d. 14 days, CD-1 mice", "type": "in vivo, mouse", "details": "for detrimental effects: 14 days", "experimental": "The highest dose (120 mg/kg b.i.d.) caused about 10% body weight loss in female mice after 7-10 days of treatment but no further deterioration was observed through the rest of the treatment period (FIG. 16A)."}, "MV4-11 cells": {"tested_on": "MV4-11 cells", "experiment": "cells", "details": "Homo sapiens, MV4-11, read-out: Inhibition Potency MV4-11-Luc Assay"}, "in vivo": {"experiment": "in vivo", "details": "female, CD-1, mouse, in vivo, po, 30 mg/kg"}, "CSNK1D": {"biological_target": "CSNK1D (Homo sapiens, UniProt P48730)", "sequence (P48730 whole entry)": "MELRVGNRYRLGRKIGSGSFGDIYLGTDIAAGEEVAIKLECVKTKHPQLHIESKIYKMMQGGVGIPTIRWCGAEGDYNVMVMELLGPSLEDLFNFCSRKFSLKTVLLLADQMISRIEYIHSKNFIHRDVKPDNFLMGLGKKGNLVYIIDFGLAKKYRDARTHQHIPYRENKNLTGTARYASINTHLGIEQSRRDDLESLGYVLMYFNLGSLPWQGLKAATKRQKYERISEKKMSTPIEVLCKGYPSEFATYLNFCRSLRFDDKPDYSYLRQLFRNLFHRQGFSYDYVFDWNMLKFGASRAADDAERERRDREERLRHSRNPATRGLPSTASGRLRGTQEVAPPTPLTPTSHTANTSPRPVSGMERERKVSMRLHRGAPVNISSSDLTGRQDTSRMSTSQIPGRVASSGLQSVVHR", "experiment": "Kd Elect binding assay (DiscoverX)"}, "CSNK1E": {"biological_target": "CSNK1E (Homo sapiens, UniProt P49674)", "sequence (P49674 whole entry)": "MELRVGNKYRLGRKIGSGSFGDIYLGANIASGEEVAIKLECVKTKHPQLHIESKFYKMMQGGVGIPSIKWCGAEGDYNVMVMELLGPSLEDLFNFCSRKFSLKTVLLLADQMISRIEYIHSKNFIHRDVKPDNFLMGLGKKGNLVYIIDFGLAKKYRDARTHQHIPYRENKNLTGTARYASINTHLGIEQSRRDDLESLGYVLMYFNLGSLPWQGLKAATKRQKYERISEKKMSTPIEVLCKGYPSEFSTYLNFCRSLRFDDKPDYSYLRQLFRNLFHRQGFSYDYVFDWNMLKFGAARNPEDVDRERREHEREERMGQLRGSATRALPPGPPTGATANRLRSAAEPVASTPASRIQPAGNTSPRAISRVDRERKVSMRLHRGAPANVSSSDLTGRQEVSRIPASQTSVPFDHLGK", "experiment": "Kd Elect binding assay (DiscoverX)"}, "MDA-MB-468 xenografts": {"tested_on": "MDA-MB-468 xenografts", "experiment": "MDA-MB-468 TNBC xenografts in NSG female mice", "details": "250 ppm medicated diet plus 5 then 8 mg/kg daily gavage, 66 days"}, "[9]": {"experiment": "Solubility of 15u in aqueous solution and vehicles"}, "[10]": {"experiment": "Oral PK of a mixture of 15w and 15u, 30 mg/kg, female CD1 mice", "details": "oral 30 mg/kg each"}},
  "data": [
    {"smiles": "CN(C)C(=O)c1ccc(N2CCCN(c3ccnc4sc(C(N)=O)c(N)c34)CC2)cc1", "note": "[Compound 15u, 3-amino-4-(4-(4-(dimethylcarbamoyl)phenyl)-1,4-diazepan-1-yl)thieno[2,3-b]pyridine-2-carboxamide]", "values": [
      {"measurement": "Elimination rate", "setting": "[1]", "value": 1.98, "unit": "h⁻¹"},
      {"measurement": "% Ctrl", "setting": "CDC2L5", "value": 71, "unit": "% Ctrl"},
      {"measurement": "% Ctrl", "setting": "FLT3(ITD)", "value": 82, "unit": "% Ctrl"},
      {"measurement": "% Ctrl", "setting": "FLT3(ITD, D835V)", "value": 41, "unit": "% Ctrl"},
      {"measurement": "% Ctrl", "setting": "FLT3(ITD, F691L)", "value": 95, "unit": "% Ctrl"},
      {"measurement": "% Ctrl", "setting": "PFCDPK1(P. falciparum)", "value": 94, "unit": "% Ctrl"},
      {"measurement": "% Ctrl", "setting": "PFPK5(P. falciparum)", "value": 68, "unit": "% Ctrl"},
      {"measurement": "% Ctrl", "setting": "PKNB(M. tuberculosis)", "value": 100, "unit": "% Ctrl"},
      {"measurement": "% Ctrl", "setting": "PRP4", "value": 100, "unit": "% Ctrl"},
      {"measurement": "IC50", "setting": "[2]", "value": 28, "unit": "nM"},
      {"measurement": "MYC-CAP-CR cell growth", "setting": "MYC-CAP-CR cells [3]", "value": "little effect"},
      {"measurement": "MYC-CaP-CR colony formation", "setting": "MYC-CAP-CR cells [4]", "value": "decreased MYC-CaP-CR colony formation"},
      {"measurement": "MYC-CaP-CR tumor volume and weight", "setting": "MYC-CaP-CR tumors", "value": "modest effect"},
      {"measurement": "mouse survival of the metastatic disease", "setting": "[5]", "value": "significantly increased mouse survival"},
      {"measurement": "inhibition of leukemia growth", "setting": "[6]; 30 mg/kg twice daily by gavage", "value": 94, "unit": "%"},
      {"measurement": "inhibition of leukemia growth", "setting": "[6]; medicated chow 1 g/kg", "value": 99.7, "unit": "%"},
      {"measurement": "survival post treatment", "setting": "[6]; oral gavage", "value": "superior survival rates"},
      {"measurement": "increase of AUC, Liquid formulation 2 vs Suspension Vehicle 1", "setting": "[7]", "value": "> 3", "unit": "fold"},
      {"measurement": "body weight loss", "setting": "[8]; female CD-1 mice, 120 mg/kg b.i.d., after 7-10 days of treatment", "value": "about 10%"},
      {"measurement": "detrimental effects", "setting": "[8]; female CD-1 mice, doses up to 60 mg/kg b.i.d.", "value": "No detrimental effects were observed"},
      {"measurement": "detrimental effects", "setting": "[8]; male CD-1 mice, 60 and 120 mg/kg b.i.d.", "value": "No detrimental effects were observed"},
      {"measurement": "IC50", "setting": "MV4-11 cells", "value": 30, "unit": "nM"},
      {"measurement": "AUC(0-t)", "setting": "in vivo", "value": 6600, "unit": "ng·h/mL"},
      {"measurement": "Kd", "setting": "CSNK1D", "value": 860, "unit": "nM"},
      {"measurement": "Kd", "setting": "CSNK1E", "value": 280, "unit": "nM"},
      {"measurement": "MDA-MB-468 tumor volume", "setting": "MDA-MB-468 xenografts", "value": "significant reduction in tumor volume"},
      {"measurement": "MDA-MB-468 tumor weights at the end of the study", "setting": "MDA-MB-468 xenografts", "value": "significantly lower"},
      {"measurement": "mouse body weights", "setting": "MDA-MB-468 xenografts", "value": "no detrimental effects"},
      {"measurement": "amount of the compound in the liquid phase", "setting": "[9]; 5% DMSO, 20% HPBCD", "value": 0.2, "unit": "mg/mL"},
      {"measurement": "solubility", "setting": "[9]; Liquid formulation 1, pH 2.1, aqueous with cosolvent or surfactant or cyclodextrin", "value": "~5000", "unit": "µg/mL"},
      {"measurement": "solubility", "setting": "[9]; Liquid formulation 2, organic solvent or mixture", "value": "≤ 20000", "unit": "µg/mL"},
      {"measurement": "solubility", "setting": "[9]; aqueous solution, pH 7, water", "value": "< 10", "unit": "µg/mL"},
      {"measurement": "average serum concentration at the latest timepoint (8 hrs) as % of Cmax", "setting": "[10]", "value": "64.4 % of Cmax"}
    ]}
  ]
}
